Experimental data reported in publication PMC7495481, “Sequence specificity analysis of the SETD2 protein lysine methyltransferase and discovery of a SETD2 super-substrate” (Communications Biology, 2020).
Values joined by “and” are separate entries in the source; they are usually repeats but may differ in a detail not shown here. Identical values can stand only once.

T1: SETD2 (Homo sapiens, UniProt Q9BYW2)
T1 construct: SETD2 catalytic SET domain (amino acids 1347–1711, UniProt No: Q9BYW2); made in house; host or cells: E. coli
T1 sequence (Q9BYW2 1347-1711): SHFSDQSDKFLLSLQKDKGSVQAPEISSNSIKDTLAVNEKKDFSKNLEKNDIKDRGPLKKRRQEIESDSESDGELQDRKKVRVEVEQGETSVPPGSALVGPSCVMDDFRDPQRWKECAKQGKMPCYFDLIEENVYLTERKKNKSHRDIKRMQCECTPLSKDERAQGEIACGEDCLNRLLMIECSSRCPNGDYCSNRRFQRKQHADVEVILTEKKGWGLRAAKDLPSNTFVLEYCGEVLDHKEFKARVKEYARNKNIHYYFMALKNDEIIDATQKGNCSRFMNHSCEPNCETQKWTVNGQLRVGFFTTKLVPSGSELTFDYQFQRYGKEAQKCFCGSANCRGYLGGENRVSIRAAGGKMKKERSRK

T2: His6-tagged catalytic SET domain of SETD2 (amino acids 1347–1711) (human, UniProt Q9BYW2 1347-1711)
T2 construct: also called SET-domain containing protein 2; KMT3A; source: E. coli, purified (Ni-NTA beads)
T2 sequence (looked up): T1 sequence (Q9BYW2 1347-1711)

B1: H3K36M (27–43) peptide (peptide, UniProt P68431 28-44, looked up)
peptide: KSAPATGGVMKPHRYRP
notes: histone H3 residues 27–43 with K36M (the oncohistone mutation); source: synthetic peptide, bought: Intavis AG (Köln)
B2: ssK36M peptide (29–43), super-substrate peptide with the target lysine changed to methionine (peptide)
peptide: APRFGGVMRPNRYRP
notes: histone H3 residues 29–43 (UniProt P68431 printed for the parent H3K36 peptide) with the four super-substrate exchanges and K36M; source: synthetic peptide, bought: Innovative Peptide Solutions (Berlin)

Columns and labels:
[1] = target: T1, SETD2; experiment: Peptide SPOT array methylation of H3K36 (29–43) variants, super-substrate design (Fig. 2a); format: biochemical; conditions: SPOT array; 0.76 µM radioactive AdoMet, 3–6 µM SETD2, 60 min, pH 9; autoradiography
Excerpt: Based on these observations, we aimed to explore, if better substrates than H3K36 can be designed for SETD2. We synthesized peptide SPOT arrays including H3K36 (29–43) as a positive control and the H3K36A mutant as a negative control, in which up to 5 combined mutations were systematically introduced that converted the original H3K36 residues into residues that are more favored (Fig. 2a and Supplementary Table 1). This peptide array was methylated by SETD2 as described above and the methylation signal was captured by autoradiography.
Fig. 2 Design of an optimized SETD2 peptide substrate and analysis of its methylation. a Variants of the H3K36 (29–43) peptide containing up to five mutations (Supplementary Table 1) were synthesized on a cellulose membrane and methylated by SETD2. The signal of the transferred radioactive methyl groups was detected by autoradiography. Spots A1 and B15 contain the H3K36 sequence, A2 and B16 the H3K36A peptide. Two films with different exposure times are shown to visualize weaker methylated spots as well. b Comparison of the methylation of purified super-substrate (ssK36) and the H3K36 peptides. […] Methylation reactions were conducted using 20 µM peptide and 6 µM enzyme. The lower panels display autoradiography films after different exposure times allowing to compare the methylation levels of the different samples. For comparison, different dilutions of the methylated ssK36 were loaded as indicated. c Time course of ssK36 peptide methylation determined under single turnover conditions using 5 µM substrate and 6 µM enzyme. […] The gels with the radioactive ssK36 (5 µl loaded per well) and H3K36 peptides (20 µl loaded per well) were exposed together to the same x-ray film. […] An enlargement of the H3K36 data with adjusted y-axis scale is shown in Supplementary Fig. 3d.
(§1) Peptide arrays containing fifteen amino acid long peptides were synthesized using the SPOT synthesis method[48] with an Autospot peptide array synthesizer (Intavis AG, Köln, Germany). After synthesis, the obtained membranes were pre-incubated in methylation buffer (20 mM Tris/HCl pH 9, 0.01% Triton X-100, 10 mM DTT, 1.5 mM MgCl2) for 5 min on a shaker. Thereafter, the membranes were incubated in methylation buffer supplemented with 0.76 µM radioactively labeled AdoMet (PerkinElmer) and 3–6 µM SETD2 enzyme for 60 min on a shaker. After methylation, the membranes were washed 5 times for 5 min in wash buffer (100 mM NH4HCO3, 1% SDS) and incubated in amplify NAMP100V (GE Healthcare) for 5 min. This was followed by the exposure of the membranes to a hyperfilm^TM high performance autoradiography (GE Healthcare) film at −80 °C in the dark. The films were developed with an Optimax Typ TR machine after different exposue times. For quantification the signal intensities were measured with the Phoretix^TM software and analyzed with Microsoft Excel.

[2] = target: T1, SETD2; experiment: Peptide SPOT array methylation of reported SETD2 substrates; format: biochemical; conditions: SPOT array on cellulose membrane; 0.76 µM radioactive AdoMet, 3–6 µM SETD2, 60 min, pH 9; autoradiography
Procedure: Next, the SETD2 activity was tested on peptide SPOT arrays containing fifteen amino acid long peptides immobilized on a cellulose membrane. As reported SETD2 substrates, the H3K36 (29–43), α -tubulin (33–47) and STAT1 (518–532) peptides (with the target lysine centered in each case) were included, and peptides with the corresponding target lysine mutated to alanine were used as negative controls. The peptide array was incubated in methylation buffer supplemented with SETD2 and radioactively labeled AdoMet. […] Methylation of the previously reported non-histone substrates α -tubulin and STAT1 was not detectable at the peptide level and, therefore, they were excluded from further investigation.
as §1
Supplementary Fig. 1: SETD2 protein and catalytic activity. a Purified His6-tagged SETD2 SET domain (1347-1711) was separated on an SDS-gel and […]
stained with Coomassie BB. […]
tubulin (33-47), STAT1 (518-532) and their corresponding target lysine to alanine mutant peptides were synthesized on a cellulose membrane. The membrane was incubated in methylation buffer supplemented with radioactively labeled AdoMet and SETD2. The signal of the transferred radioactive methyl groups was visualized by autoradiography.

[3] = target: T1, SETD2; experiment: Peptide SPOT array target lysine methylation of selected non-histone peptides (Fig. 3b); format: biochemical; conditions: Exp1–Exp3, 3–6 µM SETD2, 0.76 µM AdoMet, 60 min, pH 9
Excerpt: However, we could identify 166 possible targets, which contain partial matches to the substrate specificity profile. The possible methylation of these 166 putative substrates was investigated at the peptide level. For this, fifteen amino acid long peptides containing the sequence of the non-histone targets surrounding the predicted target lysine were synthesized on a membrane. The H3K36 (29–43) peptide (spots A1, I9), the super-substrate peptide (spots A3, I11) and the corresponding lysine to alanine mutation peptides (spot A2, I10, and A4, I12) were included as positive and negative controls (Fig. 3a, Supplementary Fig. 4 and Supplementary Table 2). The methylation reactions and the detection of the methylation signals were performed in duplicates as described above. We observed that all of the investigated peptides were more weakly methylated than the super-substrate peptide. […] In the next step, 20 of the peptides were selected for further investigation based on the methylation intensity and the known functions of the proteins to confirm the methylation at the predicted target site. The peptides were synthesized on another membrane, now including the target lysine to alanine mutation control peptides in each case. The methylation reactions and the detection of the signal were conducted as described above (Fig. 3b, Supplementary Fig. 5 and Supplementary Table 3).
Fig. 3 Identification of non-histone substrates of SETD2. a Candidate non-histone peptide substrates were identified in the human proteome based on the SETD2 super-substrate specificity profile. The peptides were synthesized on a peptide SPOT array (Supplementary Table 2) and methylated by SETD2. As controls, the H3K36, H3K36A, ssK36 and ssK36A peptides were included on spots A1–A4 and I9–I12. The autoradiography image is an example of the obtained results. […] The quantification of the data of two experiments is shown in Supplementary Fig. 4. b Analysis of target lysine methylation of selected non-histone substrate peptides. Peptide SPOT arrays were synthesized containing the non-histone peptide substrates identified in panel A in addition to the lysine to alanine mutations presented on the array as every second spot (Supplementary Table 3). As controls, the H3K36, H3K36A, ssK36, and ssK36A mutant peptides were included on spot A1–A4 and C5–C8. The autoradiography image is an example of the obtained results. The quantification of the data of three experiments is shown in Supplementary Fig. 5. Peptides selected for furhter analysis are highlighted by blue circles. c Protein methylation of FBN1 and confirmation of the target lysine methylation. Both wild type (WT) and mutant (K666R) FBN1 were purified and equal amounts were methylated by SETD2 (2 µM). […] The size of FBN1 is indicated by an asterisk.
as §1

[4] = target: T1, SETD2; experiment: Protein methylation assay (non-histone proteins, GST fusions, nucleosomes, H3.1); format: biochemical; conditions: based on own results and literature data, ref [18],[19]
Excerpt: The 9 new putative non-histone substrates of SETD2 were cloned into a pGEX-6p2 bacterial expression vector for protein expression. Six of them could be expressed and purified through glutathione sepharose beads (Table 1). For comparison, the super-substrate sequence was cloned with a […] GST-tag (ssK36-GST) to mimic the natural setting of the H3K36 site in the N-terminal tail of histone 3. Similar amounts of the purified non-histone substrate proteins and the ssK36-GST protein were loaded on an SDS-gel and stained with Coomassie BB (Supplementary Fig. 6a). Afterward protein methylation reactions were conducted using radioactively labeled AdoMet and the radioactive signal of the methyl group transfer was detected by autoradiography (Supplementary Fig. 6b). […] Next, we aimed to confirm the FBN1 methylation at the predicated target lysine K666. For this, a K666R mutation was introduced and the wildtype and mutant FBN1 proteins were purified by affinity chromatography. […]
Protein methylation reactions were performed in 40 µl methylation buffer containing 0.76 µM radioactive labeled AdoMet (PerkinElmer), approximately 20 µg of substrate protein and 6 µM SETD2 enzyme (if not otherwise indicated) for 3 h at 25 °C. […] The radioactive methylation signal was detected by a hyperfilm^TM high performance autoradiography film (GE Healthcare) at −80 °C in the dark. […]

[5] = target: T2, His6-tagged catalytic SET domain of …; experiment: enzyme inhibition kinetics (competitive inhibition of peptide methylation); 20 µM ssK36 (29–43) substrate peptide, 6 µM SETD2, inhibitor peptide 0 to 320 µM, methylation buffer (20 mM Tris/HCl pH 9, 0.01% Triton X-100, 10 mM DTT, 1.5 mM MgCl2) with 0.76 µM radioactively labeled AdoMet, 25 °C, Tricine-SDS-PAGE and autoradiography; global fit to a competitive inhibition steady-state model; conditions: both partners purified

Molecule | peptide array methylation of H3K36 variants (in words) [1] | peptide spot methylation signal [2] | Relative methylation signal, Average [3] | other results
APAFGGVKKPHRYRP [T32F] | stepwise improvement of activity with increasing number of mutations |  |  | 
APATGGVAKPHRYRP [K36A, H3K36A mutant peptide, negative control, reference compound] |  | did not show a detectable peptide methylation signal | 0.2341 and 0.1607 | 
APATGGVKKPHRYRP [H3K36, H3K36 (29–43) peptide on SPOT array, reference compound] |  | detectable methylation | 0.4318 and 0.3786 | 
APRFGGVKKPHRYRP [A31R/T32F] | stepwise improvement of activity with increasing number of mutations |  |  | 
APRFGGVKRPHRYRP [A31R/T32F/K37R] | stepwise improvement of activity with increasing number of mutations |  |  | 
DGQMPSDKTIGGGDD [α-tubulin (33–47), reported SETD2 substrate peptide, K40] |  | did not show a detectable peptide methylation signal |  | 
STCYGGYKRGQCIKP [FBN1, Fibrillin-1 peptide, target lysine 666] |  |  | 0.6365 | comparison of protein methylation efficiency [4]: more efficiently methylated than H3, α -tubulin and STAT1
B1 |  |  |  | Ki [5]: 447 µM
B2 |  |  |  | Ki [5]: 128 µM
